# Reference: publication PMC12582325 (Proceedings of the National Academy of Sciences of the …, 2025)
# “And” between values parts separate entries of the source, which are not always exact repeats. Equal entries are not always repeated. Where two headings read alike, the source gives them in different places. Where a SMILES comes first, the peptide text is derived from it.
# What was measured:
# Bc.Ste2 [1] = type: cell-based, Botrytis cinerea; details: 0.0005 μM Bc pheromone in combination with 10 μM peptide; four biological replicates; Fig. 2G
# [2] = system: F. oxysporum microconidia; experiment: Germination of F. oxysporum microconidia; type: cell-based, Fusarium oxysporum f. sp. lycopersici 4287; set-up: Germination of F. oxysporum microconidia (data of Sup.Fig.10): unit not given here; details: for Germination of F. oxysporum microconidia (data of Sup.Fig.10): 400 μM pheromone, 13 h, at least 300 spores counted; for Mean Diff, Solvent vs. peptide / Mean 2 (peptide), germination: Sup.Fig.10; for Mean Diff, Solvent vs. peptide: Dunnett's multiple comparisons test, n = 3; for Mean 2 (peptide), germination: Solvent control mean 43,77, mean of n = 3
# Procedure: For F. oxysporum microconidia production, the strain was grown for 3 to 4 d in liquid potato dextrose broth (PDB) at 28 °C and 170 rpm. Germination media ([10]) was used for assessing the spore germination. RE was prepared by removing 2-wk-old tomato plants from vermiculite and washing the roots to remove any adhering substrates ([11]).
# Supplementary Figure 10. Germination of F. oxysporum microconidia after 13 h of incubation in Germination Media at a cell density of […] microconidia/mL. The assay was performed with 400 μM of pheromone. All points represent the average of three biological replicates in which at least 300 spores were counted. Statistical significance was determined through one-way analysis of variance (ANOVA) with Dunnett’s multiple comparisons (✱p ≤ 0.05).
# B. bassiana = type: cell-based, Beauveria bassiana; details: 20 hours
# F. oxysporum germ tubes = details: gradient of 400 μM pheromone against the solvent (50% methanol); 13 h; water-agar; three biological replicates; Fig. 5A
# Procedure: For the B. bassiana and F. oxysporum chemotropism assay and plant infection assays the pheromones were dissolved in 50% (v/v) MeOH to reach a concentration of 4,000 μM.
# Fungal chemotropism was conducted as previously described ([11]). For each compound or combination of compounds tested, 300 hyphal tips were scored. All experiments were performed in three biological replicates.
# Fg.Ste2 [3] = system: Fg.Ste2
# [4] = system: no_GPCR (negative control lacking a GPCR); type: cell-based, Saccharomyces cerevisiae
# [5] = system: F. oxysporum infection of tomato plants; experiment: Tomato plant mortality assay; type: in vivo, Fusarium oxysporum / Solanum lycopersicum; details: groups of 10 plants; 3.2 × 10^6 microconidia/mL supplemented with pheromone once at inoculation; 50 d; Kaplan-Meier, log-rank
# Procedure: Tomato plant infection assays were performed as described ([61]) with F. oxysporum microconidia and treatment inoculation as described above. Plants were transferred to a growth and plant survival was recorded daily for 50 d. Plant death was diagnosed as a complete collapse of the stem, without any green parts left. The Kaplan–Meier test was used to assess statistical significance of differences in survival among groups using the log-rank test in GraphPad Prism. The infection experiment was conducted two times with 10 plants per condition.
# Bb.Ste2 [6] = type: cell-based, Beauveria bassiana
# Fo.Ste2 [7] = type: cell-based, Fusarium oxysporum
# [8] = system: F. oxysporum on tomato roots; experiment: Tomato root inoculation and fluorescence microscopy of infected roots; type: in vivo, Fusarium oxysporum / Solanum lycopersicum; details: exogenous addition of pheromone to microconidia; 3 d after inoculation; fluorescence microscopy
# [9] = system: F. oxysporum in tomato roots; experiment: Quantification of fungal DNA in tomato roots (qPCR); details: 3 d after inoculation, washed roots; compared to the untreated infected roots; three biological replicates
# Hj.Hpr2 = type: cell-based, Hypocrea jecorina
# Fo.Ste2 [10] = type: cell-based, Fusarium oxysporum; remark: listed apart in the source
# Sc Ste2 = target: T1, Sc Ste2 (Saccharomyces cerevisiae, UniProt D6VTK4); type: cell-based
# T1 construct: The native Sc system and an empty construct were added as positive and negative controls; endogenous in cells; host or cells: Saccharomyces cerevisiae wild-type control strains GEN18 (MATa) and GEN27 (MATα)
# T1 sequence (D6VTK4 1-431): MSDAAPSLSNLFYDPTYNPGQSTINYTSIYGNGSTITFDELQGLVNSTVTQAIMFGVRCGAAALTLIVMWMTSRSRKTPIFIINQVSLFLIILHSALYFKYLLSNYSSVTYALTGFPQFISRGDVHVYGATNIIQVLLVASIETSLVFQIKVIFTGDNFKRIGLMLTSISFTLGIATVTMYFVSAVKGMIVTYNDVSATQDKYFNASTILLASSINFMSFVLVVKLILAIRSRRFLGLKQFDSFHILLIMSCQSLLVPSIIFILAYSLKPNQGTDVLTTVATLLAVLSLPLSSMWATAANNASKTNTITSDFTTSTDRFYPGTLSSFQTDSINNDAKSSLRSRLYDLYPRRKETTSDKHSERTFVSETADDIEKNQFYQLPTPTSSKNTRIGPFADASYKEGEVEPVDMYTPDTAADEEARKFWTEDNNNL
# Fo.Ste2 [11] = type: cell-based, Fusarium oxysporum; remark: listed apart in the source
# Ca.Ste2 = type: cell-based, Candida albicans
# Bc.Ste2 [12] = type: cell-based, Botrytis cinerea
# Mo Ste2 GPCR = type: cell-based, Magnaporthe oryzae
# Nc Ste2 GPCR = type: cell-based, Neurospora crassa
# Fg.Ste2 [13] = type: cell-based, Fusarium graminearum
# Hj Ste2 GPCR (Hj.Hpr2) = type: cell-based, Hypocrea jecorina
# Bb.Ste2 [14] = type: cell-based, Beauveria bassiana; remark: listed apart in the source
# [15] = system: empty (strain lacking a GPCR); type: cell-based, Saccharomyces cerevisiae
# [16] = biological replicate 1 (first line)
# [17] = biological replicate 2 (second line)
# [18] = biological replicate 3 (third line)
# [19] = SC + added peptide, individual replicates (n=3), SC alone: 0, 0, 0
# [20] = Fig. 1D mating matrix, pheromone secreted by MATa strain, GPCR in MATα strain, deep well plate, 20 h coculture, three technical plating replicates
# [21] = Fig. 1D mating matrix, pheromone secreted by MATa strain, MATα strain lacking a GPCR (empty), deep well plate, 20 h coculture
compound,measurement,setting,value
WRWPCCWGQT [Scrambled],"Effect on activation of Bc.Ste2 by Bc pheromone, in words",Bc.Ste2 [1],do not differ significantly from Bc alone
same,Germination of F. oxysporum microconidia (data of Sup.Fig.10),[2]; [16],"53,95"
same,Germination of F. oxysporum microconidia (data of Sup.Fig.10),[2]; [17],"33,33"
same,Germination of F. oxysporum microconidia (data of Sup.Fig.10),[2]; [18],"27,4"
same,"Mean Diff, Solvent vs. peptide",[2],"5,543"
same,"Mean 2 (peptide), germination",[2],"38,23"
same,Chemotropic response in Bb germ tubes,B. bassiana,did not
same,Chemotropic response in F. oxysporum germ tubes,F. oxysporum germ tubes,did not
CC(C)C[C@H](NC(=O)[C@H](CS)NC(=O)[C@@H](N)Cc1c[nH]c2ccccc12)C(=O)N[C@@H](Cc1c[nH]c2ccccc12)C(=O)N[C@@H](C)C(=O)NCC(=O)N[C@@H](CCC(N)=O)C(=O)N1CCC[C@H]1C(=O)N[C@@H](CS)C(=O)N[C@@H](Cc1c[nH]c2ccccc12)C(=O)O [A4] (H-WCLWAGQPCW-OH; N-terminus assumed),"barcode qPCR of diploids, Fg.Ste2 x Hj.Pheromone","Fg.Ste2 [3]; SC + added peptide, individual replicates (n=3), SC alone: 0.003, 0.004, 0.001",0
same,"barcode qPCR of diploids, Fg.Ste2 x Fo.Pheromone","Fg.Ste2 [3]; SC + added peptide, individual replicates (n=3), SC alone: 0.005, 0.005, 0.013",0.012 and 0.1 and 0.242
same,"barcode qPCR of diploids, Fg.Ste2 x no_Pheromone","Fg.Ste2 [3]; SC + added peptide, individual replicates (n=3), SC alone: 0.012, 0.001, 0.003",0.015 and 0.01 and 0.037
same,"barcode qPCR of diploids, Fg.Ste2 x Bb.Pheromone","Fg.Ste2 [3]; SC + added peptide, individual replicates (n=3), SC alone: 0.012, 0.009, 0.006",0.004 and 0 (2×)
same,"barcode qPCR of diploids, Fg.Ste2 x Fg.Pheromone","Fg.Ste2 [3]; SC + added peptide, individual replicates (n=3), SC alone: 0.206, 0.237, 0.235",0.014 and 0.192 and 0
same,Fold reduction of Fg.Ste2 and Fg.Pheromone interaction,"Fg.Ste2 [3]; consortium in SC media, 10 μM external peptide",0.3 fold
same,Fold increase in diploids containing Fg.Ste2,"Fg.Ste2 [3]; consortium in SC media, 10 μM external peptide, three biological replicates",without increasing
same,"barcode qPCR of diploids, no_GPCR x Fg.Pheromone",[4]; [19],0.035 and 0.012 and 0
same,"barcode qPCR of diploids, no_GPCR x Hj.Pheromone",[4]; [19],0.002 and 0 (2×)
same,"barcode qPCR of diploids, no_GPCR x Bb.Pheromone","[4]; SC + added peptide, individual replicates (n=3), SC alone: 0, 0, 0.004",0.013 and 0.091 and 0
same,"barcode qPCR of diploids, no_GPCR x Fo.Pheromone","[4]; SC + added peptide, individual replicates (n=3), SC alone: 0, 0, 0.007",0.014 and 0.039 and 0.054
same,"barcode qPCR of diploids, no_GPCR x no_Pheromone","[4]; SC + added peptide, individual replicates (n=3), SC alone: 0.001, 0.001, 0",0.04 and 0 and 0.015
same,Fold increase in diploids of the negative control lacking a GPCR,"[4]; consortium in SC media, 10 μM external peptide, P = 0.013",19 fold
same,Germination of F. oxysporum microconidia (data of Sup.Fig.10),[2]; [16],15
same,Germination of F. oxysporum microconidia (data of Sup.Fig.10),[2]; [17],"33,88"
same,Germination of F. oxysporum microconidia (data of Sup.Fig.10),[2]; [18],"6,9"
same,"Mean Diff, Solvent vs. peptide",[2],"25,18"
same,"Mean 2 (peptide), germination",[2],"18,59"
same,"Effect on F. oxysporum microconidia germination, in words","[2]; exogenous addition of 400 μM peptide, 13 h in Germination Media, 3.2 x 106 microconidia/mL",significant reduction
same,Tomato plant survival,[5],no significant difference in plant survival
same,Chemotropic response in F. oxysporum germ tubes,F. oxysporum germ tubes,significant chemotropic response
same,Fold increase in formation of diploids containing Bb.Ste2,Bb.Ste2 [6],8.7 fold
same,"Mean 2 (SC + peptide), Bb share of diploids",Bb.Ste2 [6],0.4075
same,"Mean Diff, SC vs. + peptide",Bb.Ste2 [6]; n = 3,-0.3609
same,Fold decline in diploids containing Fo.Ste2,Fo.Ste2 [7],0.2 fold
same,"Mean 2 (SC + peptide), Fo share of diploids",Fo.Ste2 [7],0.1003
same,"Mean Diff, SC vs. + peptide",Fo.Ste2 [7]; n = 3,0.3913
same,Adhesion of F. oxysporum germ tubes among themselves or to tomato roots,[8],increased adhesion
same,"Fungal biomass in inoculated tomato roots (qPCR of Fol4287 actin gene, 2^−ΔΔCt, normalized to tomato gapdh)",[9],significant reduction in fungal biomass
same,Fold increase in formation of diploids containing Hj.Hpr2,Hj.Hpr2,12.1 fold
same,"Mean 2 (SC + peptide), Hj share of diploids",Hj.Hpr2,0.02456
same,"barcode qPCR of diploids, Hj.HPR2 x Bb.Pheromone",Hj.Hpr2,0
same,"barcode qPCR of diploids, Hj.HPR2 x no_Pheromone",Hj.Hpr2,0
same,"Mean Diff, SC vs. + peptide",Hj.Hpr2; n = 3,-0.02252
same,"Activation of Fo.Ste2 biosensor, in words",Fo.Ste2 [10],agonists for Fo.Ste2
same,logEC50,Fo.Ste2 [10],-9.288
same,EC50,Fo.Ste2 [10]; read-out: half-maximal effective concentration (EC50),0.516 nM
"WCYRIGEPCW [Hj, alpha pheromone of Hypocrea jecorina (Trichoderma reseei)]",Diploid frequency (%),Sc Ste2,0.0%
same,Diploid frequency (%),Fo.Ste2 [11],0.0%
same,Diploid frequency (%),Ca.Ste2,0.1%
same,Diploid frequency (%),Bc.Ste2 [12],0.1%
same,Diploid frequency (%),Mo Ste2 GPCR,0.1%
same,Diploid frequency (%),Nc Ste2 GPCR,0.1%
same,Diploid frequency (%),Fg.Ste2 [13],0.0%
same,Diploid frequency (%),Hj Ste2 GPCR (Hj.Hpr2),0.1%
same,"diploid frequency (%), Plates, Hj",Hj Ste2 GPCR (Hj.Hpr2),0.67% and 0.16% and 0.05% and 1.62% and 0.03% and 1.07% and 0.1% and 0.01%
same,Diploid frequency (%),Bb.Ste2 [14],4.9%
same,"Sup.Fig.7B - Hj, group mean",Hj.Hpr2; pH=6,0.1033
same,"Sup.Fig.7B - Hj, group mean",Hj.Hpr2; pH=7,0.03
same,"qPCR, Hj + Hj",Hj.Hpr2; ph=7,0.0033
same,Diploid frequency (%),[15],0.1%
"QWCRIHGQSCW [Nc, alpha pheromone of Neurospora crassa]",Diploid frequency (%),Sc Ste2,0.0%
same,Diploid frequency (%),Fo.Ste2 [11],0.0%
same,Diploid frequency (%),Ca.Ste2,0.0%
same,Diploid frequency (%),Bc.Ste2 [12],0.1%
same,Diploid frequency (%),Mo Ste2 GPCR; [20],0.0%
same,Diploid frequency (%),Nc Ste2 GPCR,2.8%
same,Diploid frequency (%),Fg.Ste2 [13]; [20],0.0%
same,Diploid frequency (%),Hj Ste2 GPCR (Hj.Hpr2),0.0%
same,Diploid frequency (%),Bb.Ste2 [14]; [20],0.0%
same,Diploid frequency (%),[15]; [21],0.1%
"WHWLQLKPGQPMY [Sc, alpha pheromone of Saccharomyces cerevisiae]",Diploid frequency (%),Sc Ste2,90.9%
same,Diploid frequency (%),Fo.Ste2 [11],0.0%
same,Diploid frequency (%),Ca.Ste2,0.0%
same,Diploid frequency (%),Bc.Ste2 [12],0.1%
same,Diploid frequency (%),Mo Ste2 GPCR; [20],0.2%
same,Diploid frequency (%),Nc Ste2 GPCR,0.0%
same,Diploid frequency (%),Fg.Ste2 [13]; [20],0.0%
same,Diploid frequency (%),Hj Ste2 GPCR (Hj.Hpr2),0.0%
same,Diploid frequency (%),Bb.Ste2 [14]; [20],0.0%
same,Diploid frequency (%),[15]; [21],0.2%
